Measured values published in article PMC10550954, “A high throughput screen for pharmacological inhibitors of the carbohydrate response element” (Scientific Data, 2023).

Legend:
[1] = Cytotoxicity screening (CellTiterGlo cell viability) in INS-1E ChoRE-LUC cells; type: cell-based; conditions: rat, 24 h treatment
Experimental: INS-1E ChoRE-LUC cells were plated in a white 384-well plate (5000 cells in 50 µL assay medium per well) and incubated for 24 h. 100 nL of DMSO stock concentrations of compound were transferred to each well using a Bravo instrument (Agilent) affixed with a pintool head (V&P Scientific). Cells were incubated for 24 h before 30 µL of CellTiterGlo Cell Viability Assay solution (diluted 1:6 in water, Promega) was added to each well and luminescence signal values were recorded with an Envision plate reader.
(§1) Reporter activity and cell viability data was normalized to the DMSO control wells in each plate. Ten or twelve dose-response points and three biological replicates were used to determine dose-response curves using the four-parameter inhibitor dose-response curve fitting function in Prism software (Graphpad). All graphed data are plotted as the mean and the s.e.m denoted with error bars.

[2] = test system: ChoRE-LUC (ChoRE driven transcription); assay: ChoRE-LUC luciferase reporter assay in INS-1E ChoRE-LUC cells (BrightGlo, 24 h, 25 mM glucose); type: cell-based, Rat; conditions: 24 h treatment, 25 mM glucose media, 2% FBS
Experimental: For ReFRAME library screening, 10 nL of 2 mM DMSO stock concentrations of compound were prespotted into 5 µL of assay medium (RPMI with 2% FBS, 10 mM HEPES, 1 mM sodium pyruvate, 25 mM D-glucose (Sigma), and 1% penicillin/streptomcycin) in white 384-well plates (Grenier) using an Echo Acoustic Liquid Handler instrument (Labcyte) before the addition of INS-1E ChoRE-LUC cells (5000 cells in 45 µL assay medium per well). Cells were incubated for 24 h before 30 µL of BrightGlo Luciferase Assay solution (diluted 1:3 in water, Promega) was added to each well and luminescence signal values were recorded with an Envision plate reader (PerkinElmer). This protocol was used as the ReFRAME library was supplied from off-site and necessitated pre-spotting for efficient transfer of materials. For the screening of all other libraries, which was performed in-house, INS-1E ChoRE-LUC cells were plated in a white 384-well plate (5000 cells in 50 µL assay medium per well) and incubated for 24 h. 100 nL of DMSO stock concentrations of compound were transferred to each well using a Bravo instrument with a pintool head (Agilent). Cells were incubated for 24 h before 30 µL of BrightGlo Luciferase Assay solution was added to each well and luminescence signal values were recorded with an Envision plate reader.
as §1
To establish a reliable assay with a suitable dynamic range for high-throughput screening, we first optimized the composition of the DNA regulatory sequences within the ChoRE-LUC reporter. […] To determine whether this combination of regulatory elements was robust enough to test general ChoRE activity, we constructed six pGL4-based luciferase reporter plasmids with different numbers and/or combinations of ChoRE and FOXO sequences from the promoter of the human TXNIP gene (Fig. 3a). The wild-type (WT) sequence represents the intact minimal promoter of the TXNIP gene (GRCh38.p14, chr1:145,996,639–145,996,759). The six plasmids were transiently transfected into INS-1E cells using cationic lipid-based transfection reagents and the induction of luciferase after 24 h in 25 mM glucose containing media was compared (Fig. 3b). In addition, we tested various glucose concentrations in the assay media to determine the concentration that results in the highest stimulation. […] The WT ChoRE-LUC construct was then used to generate an INS-1E stable cell line (INS-1E ChoRE-LUC) for screening in 384-well plate format. For high-throughput screening, the treatment time, serum percentage in media, and cell count per well were optimized further. The final assay design consisted of 5,000 INS-1E ChoRE-LUC cells per well of a 384-well plate in 25 mM glucose media supplemented with 2% FBS and a compound treatment time of 24 h.

TXNIP expression = test system: TXNIP expression; design: method as in PMID 28502980; conditions: compared with the ChoRE-LUC IC50 of this paper; read-out: previously reported measurement (IC50); cited from earlier work
[3] = Rattus norvegicus, INS-1E, 24 h

| Structure (SMILES) | IC50 at 24 h [1] [µM] | IC50 [2, 3] [µM] | IC50 [2] [µM] | IC50 (TXNIP expression) [µM] |
| --- | --- | --- | --- | --- |
| CCOC(=O)c1[nH]c2ccccc2c1NC(=O)/C=C/c1ccc(OC)c(OC)c1 [C175-0061] | > 20 | 1.11 | – | – |
| CC[C@H](Nc1nc(NCc2cnc(C)cc2C)c2ncn(C(C)C)c2n1)[C@@H](C)O [CYC065, reference compound] | 0.85 | 0.58 | – | – |
| FC(F)(F)c1ccc(CN2CCC(F)(c3noc(-c4ccncc4)n3)C2)cc1 (stereo not shown) [SC41-0173] | > 20 | 8.25 | – | – |
| Fc1cc(Br)ccc1CN1CCC(F)(c2noc(-c3ccncc3)n2)C1 (stereo not shown) [SC41-0178] | > 20 | 9.83 | – | – |
| Cc1cc(C)cc(C(=O)N2CC3(CC(CCOCc4cccc(F)c4)CO3)C2)c1 (stereo not shown) [SD60-0149] | > 20 | 10.6 | – | – |
| O=C(c1ccc(F)c(Cl)c1)N1CC2(CC(CCOCc3cccc(F)c3)CO2)C1 (stereo not shown) [SD60-0151] | > 20 | 9.5 | – | – |
| CCS(=O)(=O)Oc1ccc(CN(Cc2ccc(F)cc2)C(=O)/C=C/c2ccccc2)cc1 [V029-2992] | > 20 | 2.85 | 2.9 | – |
| CC(=O)c1ccc(OCCn2cnc3c(N)ncnc32)cc1 [W2476, reference compound] | – | – | 1.33 | 1.7 |
| O=C(NCc1ccco1)C(=Cc1ccc(Cl)c(Cl)c1)C(=O)NCc1ccco1 [Y070-0096] | 3.98 | 1.37 | – | – |
